These results are taken from patent US20250154105A1, “POLYCYCLIC COMPOUND AND USE THEREOF” (TYK MEDICINES, INC., priority 2021, published 2025).

Assay [1] relates to YAP-TEAD. As to the kind of experiment: YAP-TEAD inhibitor activity by Nano luciferase method (8xGTiiC-nLuc reporter in 293T cells). It is filed as cell-based. To be noted: Homo sapiens, HEK-293T, 48 hours incubation, read-out: Nano-luciferase detection (IC50). From the text: EXAMPLE 2: YAP-TEAD INHIBITOR ACTIVITY WAS DETECTED BY NANO LUCIFERASE METHOD
(1) Experimental materials and equipments: 293T cells were purchased from NANJING COBIOER BIOSCIENCES CO., LTD. DMEM medium (High sugar, no phenol red, Bio-Channel), DMSO (dimethyl sulfoxide), Lipo6000™ transfection reagent (Beyotime), pGL3B-8xGTiiC-nLuc-CMV-fLuc plasmid, 0.25% EDTA-Tripsin (trypsin digest), 1×PBS (phosphate buffer, PH7.2), 96-well white cell culture plate (PerkinElmer), fetal bovine serum (FBS), 10,000 U/mL penicillin-G/streptomycin, high-speed freezing centrifuge (EPPENDORF 5810R), 37° C. CO2 incubator, Vi-cell® Cell Counter, Envision Microplate Reader (PerkinElmer).
The revived 293T cells were inoculated into a 10 cm culture dish and placed in an incubator with 5% CO2, and cultured at constant temperature of 37° C. To ensure transfection efficiency, cells at logarithmic phase (cell density of approximately 50%-70%) should be used.
On the day before transfection, cells at the logarithmic phase were digested with Trypsin-EDTA, and culture medium was added to terminate digestion. The cell suspension was prepared by blowing and mixing using a pipette.
Cell concentration was measured using Vi-cell, and the cell suspension was diluted to a suspension of 5*10^^5 cells per milliliter. After preparing the cell suspension, the suspension was gently mixed. 10 ml of liquid was added to a 10 cm culture dish. In this way, the number of cells in each 10 cm culture dish was 5*10^^6. The cells were incubated at a constant temperature of 37° C. for 1 day in an incubator with 5% CO2.
Two clean and sterile centrifuge tubes were taken and added with 750 μL opti-MEM Medium without antibiotics and serum, respectively. Then one tube was added with 15 μg Plasmid (pGL3B-8xGTiiC-nLuc-CMV-fLuc), and gently blew and mixed well using a pipette; the other tube was added with Lipo6000 transfection reagent, and gently blew and mixed using a pipette. After standing at room temperature for 5 minutes, the culture solution containing DNA was added gently to the culture solution containing Lipo6000 transfection reagent, and mixed well by gently inverting the centrifuge tube, then standing at room temperature for 5 minutes.
The above mixture was added evenly to a 10 cm culture dish and replaced with fresh complete culture medium after 6 hours of cultivation.
After transfection for 1 day, cells were digested with Trypsin EDTA, and culture medium was added to terminate the digestion. The cell suspension was prepared by blowing and mixing using a pipette.
Cell concentration was measured using Vi-cell, and the cell suspension was diluted to a suspension of 20000 cells per milliliter.
After preparing the cell suspension, the suspension was gently mixed, and added to 96-well plate with 100 μL per well. Thus, the density of the cells to be tested is 2000 cells per well.
The inoculated cell culture plate was placed in the incubator for cultivation, and after about 24 hour, compounds with concentration gradient were added.
10 mM compound stock solution was diluted with culture medium to 50 μM. Compound solution of 50 μM was added to the third column of the deep well plate, 216 μL of culture medium containing 0.5% DMSO was added to the fourth to eleventh columns, successively.
Gradient dilution: taking 100 μL of solution from the third column and adding the solution to the fourth column and mixing well; then taking 100 µL of solution from the fourth column again and adding the solution to the fifth column, repeating this operation until the eleventh column.
Taking 25 μL of compound solution from the deep well plate and adding it to a 96-well culture plate using a multi-channel pipette. Repeating four times on the 96 well plate for each compound. Finally, a concentration gradient of 1:3.16 was formed in the 96-well plate with a maximum concentration of 10,000 nM. The • (5) Addition of Nano Luciferase Detection Reagent and Read […]

Assay [2] relates to human pleural mesothelioma cells NCI-H226. As to the kind of experiment: Cell anti-proliferation experiment (CCK8), NCI-H226. It is filed as cell-based. From the text:
TEST EXAMPLE 1 CELL ANTI-PROLIFERATION EXPERIMENT
Determination of proliferation inhibition of YAP-TEAD inhibitor compounds on human pleural mesothelioma cells NCI-H226
Experimental materials and equipments: Human pleural mesothelioma cells NCI-H226 was purchased from NANJING COBIOER BIOSCIENCES CO., LTD. RPMI-1640 medium (Bio-Channel), DMSO (dimethyl sulfoxide), CCK8 (WST-8) Cell Assay Kit (Beyotime), 0.25% EDTA-Tripsin (trypsin digest), 1×PBS (phosphate buffer, PH7.2), 96-well plate (Corning), fetal bovine serum (FBS), 10,000 U/mL penicillin-G/streptomycin, high-speed freezing centrifuge (EPPENDORF 5810R), enzyme-linked immunosorbent assay (Tecan Spark).
1. Cell plating • A) Tumor cells were cultured to 80-90% density in RPMI-1640 (containing 10% FBS and 100 U/mL penicillin-G/streptomycin) under the condition of 37° C., 5% CO2 and saturated humidity. • B) The culture medium was removed from the 10 cm culture dish. • C) Cells were washed with 10 ml 1×PBS. • D) 4 ml of 0.25% EDTA-Tripsin was added to digest pancreatin for 5 minutes in an incubator at 37° C. and 5% CO2. Then the mixture was transferred to a 15 ml centrifuge tube, and centrifuged for 5 minutes at 200 g. The supernatant was discarded to obtain cell precipitation. • E) The cell precipitation was resuspended with 4 ml of […], counted and adjusted to 10,000 cells/ml. • F) The cell suspension was added to a 96-well plate with a volume of 100 μL per well and cultured overnight in an incubator at 37° C. and 5% CO2.
• Compound dilution • A) Preparation of gradient dilution solutions of the tested compounds: the tested compounds was configured to 1 mM stock solution. Then […] of stock solution was dissolved in 1.5 ml of DMSO-free culture solution, and then 3-fold continuous gradient dilution with 0.1% DMSO culture solution was performed to get a total of 9 concentrations. The diluted concentrations of the compound were as follows: 333.33 nM, 111.11 nM, 37.03 nM, 12.35 nM, 4.15 nM, 1.37 nM, 0.46 nM, 0.15 nM • B) After full mixing, 100 μL of culture compound solution was taken to replace the culture solution in the cell culture plate, with 4 duplicated wells at each concentration; • C) The cells were transferred to the incubator to incubate for 3 days.
• A) the cell culture plate was taken out and added with 10 μl of CCK-8 (WST-8) solution per well in the biosafety cabinet; • B) The cell culture plate was put back into the incubator and continued to incubate for 3 hours; • C) 450 nm wavelength was selected to measure absorbance value on TECAN enzyme linked immunosorbent assay detector.
The following formula was used to calculate the cell viability (% Cell Viability); • Cell Viability (%)=[A(Drug-added)-A(Blank)]/[A(0 Drug-added)-A(blank)][…] • A (Drug-added): The absorbance of wells containing cells, CCK8 solution, and drug solution. • A (Blank): The absorbance of wells containing culture medium and CCK8 solution, but without cells. • A (0 Drug-added): The absorbance of wells containing cells, CCK8 solution, but without drug solution. • Cell viability: Cell proliferation viability or cytotoxicity viability was determined by the IC50 value obtained by curve fitting using GraphPad Prism 8 software.

Broadly, the IC50 is the concentration that gives 50% inhibition. `O=C(O)c1ccc2c(ccc(=O)n2-c2ccc(C(F)(F)F)cc2)c1` [Example T-1]: the IC50 in assay [1] and in assay [2] was 1 to 5 µM throughout.
As to `CC(C)NC(=O)c1ccc2c(ccc(=O)n2-c2ccc(C(F)(F)F)cc2)c1` [Example T-3], the IC50 in assay [1] and in assay [2] was at most 1 µM throughout.
For `CC(C)(C)OC(=O)c1ccc2c(c1)c(=O)ccn2-c1ccc(C(F)(F)F)cc1` [Example T-4], the IC50 in assay [1] fell in the range of 1 to 5 µM.
For the compound `O=C(O)c1ccc2c(c1)c(=O)ccn2-c1ccc(C(F)(F)F)cc1` [Example T-5], the IC50 in assay [1] is at most 1 µM; in assay [2], 1 to 5 µM.
The corresponding values for `CC(C)NC(=O)c1ccc2c(c1)c(=O)ccn2-c1ccc(C(F)(F)F)cc1` [Example T-6] are at most 1 µM and at most 1 µM.
`CNS(=O)(=O)c1ccc2c(c1)-c1ncn(C)c1CN2c1ccc(C(F)(F)F)cc1` [Example T-7]: the IC50 in assay [1] and in assay [2] was at most 1 µM each time.
On to `CNS(=O)(=O)c1ccc2c(c1)c1ncn(C)c1c(=O)n2-c1ccc(C(F)(F)F)cc1` [Example T-15], for which the IC50 in assay [1] and in assay [2] was at most 1 µM each time.
Turning to `COC[C@H](C)NC(=O)c1ccc2c(c1)-c1ncn(C)c1CN2c1ccc(C(F)(F)F)cc1` [Example T-16], the IC50 in assay [1] and in assay [2] was at most 1 µM in each case.
For `C[C@H](NC(=O)c1ccc2c(c1)c(=O)ccn2-c1ccc(C(F)(F)F)cc1)c1ccccn1` [Example T-17], the figures for the IC50 in assay [1] and in assay [2] were at most 1 µM and 1 to 5 µM, respectively.
For `CNS(=O)(=O)c1ccc2c(c1)-c1nn(C)cc1CN2c1ccc(C(F)(F)F)cc1` [Example T-18], in that order: at most 1 µM and at most 1 µM.
For `CNS(=O)(=O)c1ccc2c(c1)-c1cn(C)nc1CN2c1ccc(C(F)(F)F)cc1` [Example T-19], in that order: at most 1 µM and at most 1 µM.
For `CNS(=O)(=O)c1ccc2c(c1)c1ncn(CCOC)c1c(=O)n2-c1ccc(C(F)(F)F)cc1` [Example T-20], the IC50 in assay [1] and in assay [2] was at most 1 µM throughout.
Turning to `N#CC1CN(C(=O)c2ccc3c(ccc(=O)n3-c3ccc(C(F)(F)F)cc3)c2)C1` [Example T-21], the IC50 in assay [1] and in assay [2] was 1 to 5 µM each time.
For the compound `O=C(c1ccc2c(ccc(=O)n2-c2ccc(C(F)(F)F)cc2)c1)N1CC(O)C1` [Example T-22], the IC50 in assay [1] and in assay [2] was 1 to 5 µM in each case.
On to `C[C@@H](NC(=O)c1ccc2c(ccc(=O)n2-c2ccc(C(F)(F)F)cc2)c1)c1ccccn1` [Example T-24], for which the half-inhibitory concentration (IC50) in assay [1] and in assay [2] was 1 to 5 µM each time.
With `COC[C@@H](C)NC(=O)c1ccc2c(c1)c(=O)ccn2-c1ccc(C(F)(F)F)cc1` [Example T-36], the IC50 in assay [1] was 1 to 5 µM.
As to `O=C(c1ccc2c(c1)c(=O)ccn2-c1ccc(C(F)(F)F)cc1)N1CC(O)C1` [Example T-37], in assay [1], the 50% inhibitory concentration (IC50) was 1 to 5 µM.
On to `Cn1cc2c(=O)n(-c3ccc(C(F)(F)F)cc3)c3ccc(C(=O)N4CC(O)C4)cc3c2n1` [Example T-103], for which the IC50 in assay [2] is 1 to 5 µM.
The same measure, in the same setting: next, `Cn1cc2c(=O)n(-c3ccc(C(F)(F)F)cc3)c3ccc(C(=O)N4CC(C#N)C4)cc3c2n1` [Example T-104]: 1 to 5 µM; `C[C@@H](NC(=O)c1ccc2c(c1)c1nn(C)cc1c(=O)n2-c1ccc(C(F)(F)F)cc1)c1ccccn1` [Example T-106]: 1 to 5 µM; `CN(C)C(=O)c1ccc2c(c1)c1nn(C)cc1c(=O)n2-c1ccc(C(F)(F)F)cc1` [Example T-112]: 1 to 5 µM.
On the same count and under the same terms, with `COC[C@@H](C)NC(=O)c1ccc2c(c1)c1nn(C)cc1c(=O)n2-c1ccc(C(F)(F)F)cc1` [Example T-119] the figure was 1 to 5 µM; with `C[C@H](NC(=O)c1ccc2c(c1)c1nn(C)cc1c(=O)n2-c1ccc(C(F)(F)F)cc1)c1ccncc1` [Example T-147], 1 to 5 µM.
Take `C[C@H](NC(=O)c1ccc2c(c1)c1c(c(=O)n2-c2ccc(C(F)(F)F)cc2)CC(F)CC1)c1ccccn1` (stereo partly drawn) [Example T-304]: the IC50 in assay [1] is at most 1 µM.
Regarding `C[C@H](NC(=O)c1ccc2c(c1)c1c(c(=O)n2-c2ccc(C(F)(F)F)cc2)C(F)CCC1)c1ccccn1` (stereo partly drawn) [Example T-305], the IC50 in assay [1] is at most 1 µM.
For the compound `C[C@H](NC(=O)c1ccc2c(c1)c1c(c(=O)n2-c2ccc(C(F)(F)F)cc2)CC(F)(F)CC1)c1ccccn1` [Example T-308], in assay [1], the IC50 was at most 1 µM.
On the same count and under the same terms, next, `C[C@H](NC(=O)c1ccc2c(c1)c1c(c(=O)n2-c2ccc(C(F)(F)F)cc2)C(F)(F)CCC1)c1ccccn1` [Example T-309]: at most 1 µM; `CC1OCc2c1c(=O)n(-c1ccc(C(F)(F)F)cc1)c1ncc(C(=O)N[C@@H](C)c3ccccn3)cc21` (stereo partly drawn) [Example T-438]: 1 to 5 µM; `CCS(=O)(=O)Nc1ccc2c(c1)c(C)cc(=O)n2-c1ccc(C(F)(F)F)cc1` [Example T-442]: at most 1 µM.
For the compound `CC(=O)Nc1ccc2c(c1)c(C)cc(=O)n2-c1ccc(C(F)(F)F)cc1` [Example T-444], the IC50 in assay [1] fell in the range of 1 to 5 µM.
The same measure, in the same setting: with `Cc1cc2cc(C(=O)N[C@@H](C)c3cccc(N)n3)cnc2n(-c2ccc(C(F)(F)F)cc2)c1=O` [Example T-461] the figure was at most 1 µM.
